Laboratory results from patent US6191135A, “Neurokinin antagonists” (Boehringer Ingelheim KG, priority 1994, dated 2001).

Target: T1, NK1 -receptor (substance P-receptor) (Homo sapiens, UniProt P25103)
T1 construct: intact human lymphoblastoma cells (IM-9) which express NK1 -receptors; endogenous in cells; host or cells: IM-9 human lymphoblastoma cells
Experiment: NK1-receptor affinity: displacement of 125I labelled substance P on intact human lymphoblastoma cells (IM-9)
Assay type: binding
Conditions: intact human lymphoblastoma cells (IM-9) expressing NK1-receptors, read-out: Ki
Experimental: The receptor affinity for the NK1 -receptor (substance P-receptor) was determined on intact human lymphoblastoma cells (IM-9) which express NK1 -receptors, and the displacement of ^125 I labelled substance P was measured.

T1 sequence (P25103 whole entry): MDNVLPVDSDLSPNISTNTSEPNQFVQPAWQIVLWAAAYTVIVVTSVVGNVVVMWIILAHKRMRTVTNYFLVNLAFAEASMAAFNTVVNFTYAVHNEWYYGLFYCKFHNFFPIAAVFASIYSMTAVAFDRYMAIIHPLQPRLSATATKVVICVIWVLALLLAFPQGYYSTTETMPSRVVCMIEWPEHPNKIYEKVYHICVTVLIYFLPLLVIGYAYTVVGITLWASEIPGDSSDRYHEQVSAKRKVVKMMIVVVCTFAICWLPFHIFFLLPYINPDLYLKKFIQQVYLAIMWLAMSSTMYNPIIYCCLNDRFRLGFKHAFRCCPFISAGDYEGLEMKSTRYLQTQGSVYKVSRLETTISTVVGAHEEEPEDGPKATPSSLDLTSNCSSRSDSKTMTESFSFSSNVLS

Question: How did the Ki turn out when COc1ccccc1C(CNCc1cc(C(F)(F)F)cc(C(F)(F)F)c1)N1CCCC(C)C1 (stereo not drawn) [Example 81, 3,5-Bistrifluoromethylbenzyl-[2-(2-methoxyphenyl)-2-(3-methylpiperidine-1-yl)-ethyl]-amine] was run?
Answer: 0.09 µM

Question: With COc1ccccc1C(CNCc1cc(C(F)(F)F)cc(C(F)(F)F)c1)N1CCC(C)CC1 (stereo not drawn) [Example 82, 3,5-Bistrifluoromethylbenzyl-[2-(2-methoxyphenyl)-2-(4-methylpiperidine-1-yl)-ethyl]-amine] as the compound, how does the Ki read?
Answer: 0.052 µM

Question: COc1ccccc1C(CNCc1cc(C(F)(F)F)cc(C(F)(F)F)c1)N1CC(C)CC(C)C1 (stereo not drawn) [Example 83, 3,5-Bistrifluoromethylbenzyl-[2-(2-methoxyphenyl)-2-(3,5-dimethylpiperidine-1-yl)-ethyl]-amine] was tested. Which Ki did it give?
Answer: 0.209 µM

Question: For COc1ccccc1C(CNCc1cc(C(F)(F)F)cc(C(F)(F)F)c1)N1CCC(C2CCCCC2)CC1 (stereo not drawn) [Example 89, 3,5-Bistrifluoromethylbenzyl-[2-(2-methoxyphenyl)-2-(4-cyclohexylpiperidine-1-yl)-ethyl]-amine], which Ki is on record?
Answer: 0.08 µM

Question: How did the Ki turn out when COc1ccccc1C(CNCc1cc(C(F)(F)F)cc(C(F)(F)F)c1)N1CCC(N2CCCCC2)CC1 (stereo not drawn) [Example 91] was run?
Answer: 0.002 µM

Question: With FC(F)(F)c1cc(CNCC(c2ccccc2)N2CCOCC2)cc(C(F)(F)F)c1 (stereo not drawn) [Example 96, 3,5-Bistrifluoromethylbenzyl-(2-phenyl-2-morpholine-4-yl-ethyl)-amine] as the compound, how does the Ki read?
Answer: 0.185 µM

Question: COc1ccccc1C(CNCc1cc(C(F)(F)F)cc(C(F)(F)F)c1)N1CCC(c2c[nH]c3ccccc23)CC1 (stereo not drawn) [Example 97, 3,5-Bistrifluoromethylbenzyl-(2-(2-methoxyphenyl)-2-(4-(3-indolyl)-piperidine-1-yl)-ethyl]-amine] was tested. Which Ki did it give?
Answer: 0.3 µM

Question: How did the Ki turn out when CN1CCN(C(CNC(=O)Nc2cc(C(F)(F)F)cc(C(F)(F)F)c2)c2ccccc2)CC1 (stereo not drawn) [Example 105, N-3,5-Bistrifluoromethylphenyl-N'-[2-phenyl-2-(4-methylpiperazine-1-yl)-ethyl]-urea] was run?
Answer: 0.078 µM

Question: How did the Ki turn out when COc1ccccc1C(CNC(=O)Nc1cc(C(F)(F)F)cc(C(F)(F)F)c1)N1CCN(C)CC1 (stereo not drawn) [Example 107, N-3,5-Bistrifluoromethylphenyl-N'-[2-(2-methoxyphenyl)-2-(4-methylpiperazin-1-yl)-ethyl]-urea] was run?
Answer: 0.25 µM

Question: With CCCN1CCN(C(CNC(=O)Nc2cc(C(F)(F)F)cc(C(F)(F)F)c2)c2ccccc2OC)CC1 (stereo not drawn) [Example 108, N-3,5-Bistrifluoromethylphenyl-N'-[2-(2-methoxyphenyl)-2-(4-(1-propyl)piperazine-1-yl)-ethyl]-urea] as the compound, how does the Ki read?
Answer: 0.034 µM

Question: COc1ccccc1C(CNC(=O)Nc1cc(C(F)(F)F)cc(C(F)(F)F)c1)N1CCN(C(C)C)CC1 (stereo not drawn) [Example 110, N-3,5-Bistrifluoromethylphenyl-N'-[2-(2-methoxyphenyl)-2-(4-(2-propyl)piperazin-1-yl)-ethyl]-urea] was tested. Which Ki did it give?
Answer: 0.028 µM

Question: With COc1ccccc1C(CNC(=O)Nc1cc(C(F)(F)F)cc(C(F)(F)F)c1)N1CCN(C2CCCC2)CC1 (stereo not drawn) [Example 111, N-3,5-Bistrifluoromethylphenyl-N'-[2-(2-methoxyphenyl)-2-(4-cyclopentylpiperazine-1-yl)-ethyl]-urea] as the compound, how does the Ki read?
Answer: 0.012 µM

Question: How did the Ki turn out when O=C(NCC(c1ccccc1)N1CCN(C2CCCCC2)CC1)Nc1ccccc1 (stereo not drawn) [Example 112, N-Phenyl-N'-[2-phenyl-2-(4-cyclohexylpiperazine-1-yl)-ethyl]-urea] was run?
Answer: 1 µM

Question: How did the Ki turn out when O=C(NCC(c1ccccc1)N1CCN(C2CCCCC2)CC1)Nc1ccccc1Cl (stereo not drawn) [Example 113, N-2-Chlorophenyl-N'-[2-phenyl-2-(4-cyclohexylpiperazine-1-yl)-ethyl]-urea] was run?
Answer: 0.403 µM

Question: With COc1ccccc1NC(=O)NCC(c1ccccc1)N1CCN(C2CCCCC2)CC1 (stereo not drawn) [Example 114, N-2-Methoxyphenyl-N'-[2-phenyl-2-(4-cyclohexylpiperazine-1-yl)-ethyl]-urea] as the compound, how does the Ki read?
Answer: 0.49 µM

Question: Which Ki does the source give for O=C(NCC(c1ccccc1)N1CCN(C2CCCCC2)CC1)Nc1cc(C(F)(F)F)cc(C(F)(F)F)c1 (stereo not drawn) [Example 115, N-3,5-Bistrifluoromethylphenyl-N'-[2-phenyl-2-(4-cyclohexylpiperazine-1-yl)-ethyl]-urea] here?
Answer: 0.03 µM

Question: For COc1ccccc1C(CNC(=O)Nc1cc(C(F)(F)F)cc(C(F)(F)F)c1)N1CCN(C2CCCCC2)CC1 (stereo not drawn) [Example 116, N-3,5-Bistrifluoromethylphenyl-N'-[2-(2-methoxyphenyl)-2-(4-cyclohexylpiperazine-1-yl)-ethyl]-urea], which Ki is on record?
Answer: 0.024 µM

Question: For O=C(NCC(c1ccc(Cl)c(Cl)c1)N1CCN(C2CCCCC2)CC1)Nc1cc(C(F)(F)F)cc(C(F)(F)F)c1 (stereo not drawn) [Example 117, N-3,5-Bistrifluoromethylphenyl-N'-[2-(3,4-dichlorophenyl)-2-(4-cyclohexylpiperazine-1-yl)-ethyl]-urea], which Ki is on record?
Answer: 0.015 µM

Question: For COc1ccccc1C(CNC(=O)Nc1cc(C(F)(F)F)cc(C(F)(F)F)c1)N1CCN(C2CCCCCC2)CC1 (stereo not drawn) [Example 120, N-3,5-Bistrifluoromethylphenyl-N'-[2-(2-methoxyphenyl)-2-(4-cycloheptylpiperazine-1-yl)-ethyl]-urea], which Ki is on record?
Answer: 0.036 µM

Question: How did the Ki turn out when COc1ccccc1C(CNC(=O)Nc1cc(C(F)(F)F)cc(C(F)(F)F)c1)N1CCN(CCC2CCCCC2)CC1 (stereo not drawn) [Example 121, N-3,5-Bistrifluoromethylphenyl-N'-[2-(2-methoxyphenyl)-2-(4-(2-cyclohexylethyl)piperazine-1-yl)-ethyl]-urea] was run?
Answer: 0.124 µM

Question: With O=C(NCC(c1ccccc1)N1CCN(c2ccccc2)CC1)Nc1cc(C(F)(F)F)cc(C(F)(F)F)c1 (stereo not drawn) [Example 123, N-3,5-Bistrifluoromethylphenyl-N'-[2-phenyl-2-(4-phenylpiperazine-1-yl)-ethyl]-urea] as the compound, how does the Ki read?
Answer: 0.6 µM

Question: How did the Ki turn out when COc1ccccc1C(CNC(=O)Nc1cc(C(F)(F)F)cc(C(F)(F)F)c1)N1CCN(c2ccccc2)CC1 (stereo not drawn) [Example 142] was run?
Answer: 0.65 µM

Question: How did the Ki turn out when O=C(NCC(c1ccccc1)N1CCN(Cc2ccccc2)CC1)Nc1cc(C(F)(F)F)cc(C(F)(F)F)c1 (stereo not drawn) [Example 146] was run?
Answer: 0.115 µM

Question: How did the Ki turn out when COc1ccccc1C(CNC(=O)Nc1cc(C(F)(F)F)cc(C(F)(F)F)c1)N1CCN(Cc2ccccc2)CC1 (stereo not drawn) [Example 147] was run?
Answer: 0.19 µM

Question: Which Ki does the source give for COc1ccccc1C(CNC(=O)Nc1cc(C(F)(F)F)cc(C(F)(F)F)c1)N1CCN(Cc2ccc3c(c2)OCO3)CC1 (stereo not drawn) [Example 148, N-3,5-Bistrifluoromethylphenyl-N'-[2-(2-methoxyphenyl)-2-(3,4-methylenedioxybenzyl-piperazine-1-yl)-ethyl]-urea] here?
Answer: 0.286 µM

Question: Which Ki does the source give for COc1ccccc1C(CNC(=O)Nc1cc(C(F)(F)F)cc(C(F)(F)F)c1)N1CCN(CCc2ccccc2)CC1 (stereo not drawn) [Example 150, N-3,5-Bistrifluoromethyl-phenyl-phenyl-N'-[2-(2-methoxyphenyl-2-(4-2-phenylethyl)-piperazine-1-yl)-ethyl]-urea] here?
Answer: 0.717 µM

Question: Which Ki does the source give for COc1ccccc1C(CNC(=O)Nc1cc(C(F)(F)F)cc(C(F)(F)F)c1)N1CCN(C(C)c2ccccc2)CC1 (stereo not drawn) [Example 151] here?
Answer: 0.215 µM

Question: COc1ccccc1C(CNC(=O)Nc1cc(C(F)(F)F)cc(C(F)(F)F)c1)N1CCN(c2ccccn2)CC1 (stereo not drawn) [Example 156] was tested. Which Ki did it give?
Answer: 0.479 µM

Question: COc1ccccc1C(CNC(=O)Nc1cc(C(F)(F)F)cc(C(F)(F)F)c1)N1CCN(c2ccc3ccccc3n2)CC1 (stereo not drawn) [Example 158, N-3,5-Bistrifluoromethylphenyl-N'-[2-(2-methoxyphenyl)-2-(4-(2-quinolinyl)piperazine-1-yl)-ethyl]-urea] was tested. Which Ki did it give?
Answer: 0.905 µM

Question: With COc1ccccc1C(CNC(=O)Nc1cc(C(F)(F)F)cc(C(F)(F)F)c1)N1CCCCC1 (stereo not drawn) [Example 166] as the compound, how does the Ki read?
Answer: 0.15 µM
